Assay results: ChEMBL document CHEMBL5576144, “Accelerated Discovery of Carbamate Cbl-b Inhibitors Using Generative AI Models and Structure-Based Drug Design” (J Med Chem, 2024)

How the values were obtained:
[1] = Intrinsic clearance in human liver microsome at 1 uM incubated for 30 mins in presence of NADPH by LC-MS/MS analysis; assay type: ADME, microsomes; settings: for microsomal CLint at 1 µM: liver microsomes, read-out: CLH
[2] = Lipophilicity, logD of compound in octanol/aqueous buffer at pH 7.4 incubated for 2 hrs by shake flask method; assay type: physicochemical; settings: for logD at 2 h: octanol/aqueous buffer, pH 7.4
[3] = target: E3 ubiquitin-protein ligase CBL-B (Homo sapiens, UniProt Q13191); experiment: Inhibition of Cbl-b (unknown origin) by TR-FRET assay
Sequence of E3 ubiquitin-protein ligase CBL-B (Q13191 whole entry): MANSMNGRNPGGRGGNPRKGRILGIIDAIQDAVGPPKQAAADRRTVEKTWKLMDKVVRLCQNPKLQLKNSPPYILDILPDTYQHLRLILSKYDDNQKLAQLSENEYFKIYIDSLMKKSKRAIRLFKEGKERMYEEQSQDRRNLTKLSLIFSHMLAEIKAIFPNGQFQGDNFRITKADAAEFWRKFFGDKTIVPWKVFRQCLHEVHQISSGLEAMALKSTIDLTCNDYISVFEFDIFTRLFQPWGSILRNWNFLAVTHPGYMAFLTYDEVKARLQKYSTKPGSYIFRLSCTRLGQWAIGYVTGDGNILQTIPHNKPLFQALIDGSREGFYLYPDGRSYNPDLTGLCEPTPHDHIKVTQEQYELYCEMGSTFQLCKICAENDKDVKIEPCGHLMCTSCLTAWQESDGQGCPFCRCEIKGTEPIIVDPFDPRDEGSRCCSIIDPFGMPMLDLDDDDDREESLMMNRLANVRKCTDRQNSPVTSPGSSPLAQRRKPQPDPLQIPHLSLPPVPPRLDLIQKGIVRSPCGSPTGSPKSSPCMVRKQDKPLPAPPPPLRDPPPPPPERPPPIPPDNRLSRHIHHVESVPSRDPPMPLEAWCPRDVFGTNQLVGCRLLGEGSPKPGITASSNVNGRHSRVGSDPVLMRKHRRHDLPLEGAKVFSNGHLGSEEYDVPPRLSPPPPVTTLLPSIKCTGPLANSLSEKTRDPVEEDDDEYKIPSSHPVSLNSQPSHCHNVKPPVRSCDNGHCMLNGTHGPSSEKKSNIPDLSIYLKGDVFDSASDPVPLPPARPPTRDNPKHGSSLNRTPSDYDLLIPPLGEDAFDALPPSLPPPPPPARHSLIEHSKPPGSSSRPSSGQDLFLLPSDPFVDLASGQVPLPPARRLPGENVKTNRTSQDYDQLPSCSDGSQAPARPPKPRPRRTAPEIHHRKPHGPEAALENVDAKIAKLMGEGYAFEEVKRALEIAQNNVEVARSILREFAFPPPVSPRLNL

For `C[C@H]1CCCN(Cc2cc3c(c(C(F)(F)F)c2)CN(c2cccc([C@]4(c5nncn5C)C[C@@H](C)C4)c2)C3=O)C1`, the microsomal CLint at 1 µM [1] was 130 µL/min/mg and the logD at 2 h [2] was 4.
`CNC(=O)[C@]1(c2cccc(-n3nc4c(C(F)(F)F)cc(CN5CCC[C@H](C)C5)cn4c3=O)c2)C[C@H](C)C1` showed a microsomal CLint at 1 µM [1] greater than 300 µL/min/mg, an IC50 [3] of 6.5 µM and a logD at 2 h [2] of 4.3.
Work on `O=C1NCC[C@@](c2cccc(-c3cc(C(F)(F)F)c[nH]c3=O)c2)(C2CC2)O1` yielded a microsomal CLint at 1 µM [1] of 35 µL/min/mg, an IC50 [3] of 8.2 µM and a logD at 2 h [2] of 2.1.
For `C[C@H]1CCCN(Cc2cc(C(F)(F)F)c3nn(-c4cccc([C@@]5(C)CCNC(=O)C5)c4)c(=O)n3c2)C1`, the microsomal CLint at 1 µM [1] was 230 µL/min/mg, the IC50 [3] was 37 µM and the logD at 2 h [2] was 3.4.
`C[C@H]1CCCN(Cc2cc(C(F)(F)F)c3nn(-c4cccc([C@@]5(C6CC6)CCNC(=O)O5)c4)c(=O)n3c2)C1` showed a microsomal CLint at 1 µM [1] greater than 300 µL/min/mg, an IC50 [3] of 7.8 µM and a logD at 2 h [2] of 3.8.
For `CC[C@]1(c2cccc(NC(=O)c3cc(C)nc(C4CC4)n3)c2)CCNC(=O)O1`, the microsomal CLint at 1 µM [1] was 54 µL/min/mg, the IC50 [3] was greater than 100 µM and the logD at 2 h [2] was 2.9.
Work on `C[C@H]1CCCN(Cc2cc(C(F)(F)F)c3nn(-c4cccc(C5(C)CC(=O)NC(=O)C5)c4)c(=O)n3c2)C1` yielded a microsomal CLint at 1 µM [1] greater than 300 µL/min/mg, an IC50 [3] of 6.6 µM and a logD at 2 h [2] of 3.2.
In the case of `CC1CC(c2cccc(-n3nc4c(C(F)(F)F)cc(CN5CCC[C@H](C)C5)cn4c3=O)c2)(n2cccn2)C1` (some centres not stated), the microsomal CLint at 1 µM [1] is reported as greater than 300 µL/min/mg, the IC50 [3] is reported as greater than 10 µM and the logD at 2 h [2] is reported as 5.3.
Molecule `C[C@H]1CCCN(Cc2cc(C(F)(F)F)c3nn(-c4cccc([C@]5(c6nncn6C)C[C@@H](C)C5)c4)c(=O)n3c2)C1` has a microsomal CLint at 1 µM [1] of 160 µL/min/mg, an IC50 [3] of 0.011 µM and a logD at 2 h [2] of 3.9.
Molecule `C[C@H]1CCCN(Cc2cc(C(F)(F)F)c3nn(-c4cccc([C@]5(C6CC6)CCNC(=O)O5)c4)c(=O)n3c2)C1` has a microsomal CLint at 1 µM [1] of 260 µL/min/mg, an IC50 [3] of 0.007 µM and a logD at 2 h [2] of 3.7.
With `Cc1cc(C(=O)Nc2cccc([C@]3(C)CCNC(=O)C3)c2)nc(C2CC2)n1` the microsomal CLint at 1 µM [1] was 34 µL/min/mg, the IC50 [3] was 28 µM and the logD at 2 h [2] was 2.7.
Work on `Cc1cc(C(=O)Nc2cccc([C@]3(c4nncn4C)C[C@@H](C)C3)c2)nc(C2CC2)n1` yielded a microsomal CLint at 1 µM [1] of 35 µL/min/mg, an IC50 [3] of 0.16 µM and a logD at 2 h [2] of 3.2.
`O=C1NCC[C@](c2cccc(-c3cc(C(F)(F)F)c[nH]c3=O)c2)(C2CC2)O1` showed a microsomal CLint at 1 µM [1] of 18 µL/min/mg, an IC50 [3] of 0.091 µM and a logD at 2 h [2] of 2.2.
`Cc1cc(C(=O)Nc2cccc([C@]3(C4CC4)CCNC(=O)O3)c2)nc(C2CC2)n1` gave a microsomal CLint at 1 µM [1] of 25 µL/min/mg, an IC50 [3] of 0.17 µM and a logD at 2 h [2] of 3.
With `Cc1cc(C(=O)Nc2cccc([C@@]3(C)CCNC(=O)C3)c2)nc(C2CC2)n1` the microsomal CLint at 1 µM [1] was 23 µL/min/mg, the IC50 [3] was 33 µM and the logD at 2 h [2] was 2.7.
With `Cc1cc(C(=O)Nc2cccc([C@@]3(C4CC4)CCNC(=O)O3)c2)nc(C2CC2)n1` the microsomal CLint at 1 µM [1] was 61 µL/min/mg, the IC50 [3] was greater than 100 µM and the logD at 2 h [2] was 3.
`Cc1cc(C(=O)Nc2cccc([C@@]3(C)CCNC(=O)O3)c2)nc(C2CC2)n1` showed a microsomal CLint at 1 µM [1] of 7.7 µL/min/mg, an IC50 [3] greater than 100 µM and a logD at 2 h [2] of 2.4.
In the case of `Cc1cc(C(=O)Nc2cccc([C@]3(C)CCNC(=O)O3)c2)nc(C2CC2)n1`, the microsomal CLint at 1 µM [1] is reported as 5.9 µL/min/mg, the IC50 [3] is reported as 4.8 µM and the logD at 2 h [2] is reported as 2.5.
For `Cn1cnnc1[C@]1(c2cccc(-n3nc4c(C(F)(F)F)cccn4c3=O)c2)C[C@H](C)C1`, the microsomal CLint at 1 µM [1] was 48 µL/min/mg, the IC50 [3] was 0.23 µM and the logD at 2 h [2] was 2.7.
Work on `C[C@H]1CCCN(Cc2cc(C(F)(F)F)c3nn(-c4cccc([C@]5(C)CCNC(=O)C5)c4)c(=O)n3c2)C1` yielded a microsomal CLint at 1 µM [1] of 170 µL/min/mg, an IC50 [3] of 1.2 µM and a logD at 2 h [2] of 3.5.
`CC[C@@]1(c2cccc(NC(=O)c3cc(C)nc(C4CC4)n3)c2)CCNC(=O)O1` gave a microsomal CLint at 1 µM [1] of 27 µL/min/mg, an IC50 [3] of 1.4 µM and a logD at 2 h [2] of 3.
In the case of `C[C@H]1CCCN(Cc2cc(C(F)(F)F)c3nn(-c4cccc([C@]5(C(=O)N(C)C)C[C@@H](C)C5)c4)c(=O)n3c2)C1`, the microsomal CLint at 1 µM [1] is reported as greater than 300 µL/min/mg, the IC50 [3] is reported as 2.1 µM and the logD at 2 h [2] is reported as 4.9.
With `Cc1cc(C(=O)Nc2cccc(C3(C)CCNC(=O)N3C)c2)nc(C2CC2)n1` (racemic) the microsomal CLint at 1 µM [1] was 75 µL/min/mg, the IC50 [3] was greater than 100 µM and the logD at 2 h [2] was 2.7.
`Cc1cc(C(=O)Nc2cccc(C3(C)CCNC(=O)N3)c2)nc(C2CC2)n1` (racemic) gave a microsomal CLint at 1 µM [1] of 6.6 µL/min/mg, an IC50 [3] greater than 100 µM and a logD at 2 h [2] of 2.4.
Molecule `Cc1cc(C(=O)Nc2cccc(C3(C)CNC(=O)O3)c2)nc(C2CC2)n1` (single isomer, unassigned; 14) has a microsomal CLint at 1 µM [1] of 16 µL/min/mg, an IC50 [3] greater than 100 µM and a logD at 2 h [2] of 2.7.
Molecule `Cc1cc(C(=O)Nc2cccc(C3(C)CNC(=O)O3)c2)nc(C2CC2)n1` (single isomer, unassigned; 15) has a CLH ([1]; microsomes, 0.5 h, 1 µM) of 10 µL/min/mg, an IC50 [3] greater than 100 µM and a logD ([2]; octanol/water, pH 7.4, 2 h, 2 h) of 2.6.
